A word on the pIC50: it is −log10 of the IC50, conventionally taken in molar units. A word on the IC50: it is the concentration that gives 50% inhibition.

SMILES strings stand for the structures. pIC50: −log10 of the molar value. Read-outs that look alike come from different tables or passages of the source.

The target of assay [1] is T1, PD-1/PD-L1 interaction (Homo sapiens, UniProt Q9NZQ7).
T1 construct: Tag1 or Tag2 (undisclosed kit tag); purchased Cisbio
Description: Cisbio PD-1/PD-L1 Homogeneous Time-Resolved Fluorescence (HTRF) binding assay. Conditions: read-out: Reported IC50; for IC50: same result in μM. The source says:
The ability of compounds of the disclosure to inhibit the PD-1/PD-L1 interaction was investigated using a Cisbio PD-1/PD-L1 Homogeneous Time-Resolved Fluorescence (HTRF) binding assay (https://ca.cisbio.net/human-pd1-pd-l1-biochemical-binding-assay-44666).
With the assay, the interaction between PD-L1 and PD-1 is detected by using anti-Tag1 labeled with Europium (HTRF donor) and anti-Tag2 labeled with XL665 (HTRF acceptor). When the donor and acceptor antibodies are brought into close proximity due to PD-L1 and PD-1 binding, excitation of the donor antibody triggers fluorescence resonance energy transfer (FRET) towards the acceptor antibody, which in turn emits specifically at 665 nm. This specific signal is directly proportional to the extent of PD-1/PD-L1 interaction. Thus, a compound blocking the PD-1/PD-L1 interaction causes a reduction in the HTRF signal.
The assay was carried out in accordance with the product insert.

The test system of assay [2] is PD-1. The settings on record: PD-1 inhibition assay, literature value; read-out: IC50 previously reported; cited from earlier work.
Assay [3] addresses PD-1/PD-L1 (Homo sapiens, UniProt Q9NZQ7). The settings on record: Table 11; known small molecule PD-1/PD-L1 blockers; cited from earlier work.
Setting [4] is: Table 10, * n = 7, median, P1 and P2 are different isomers.
The mark [5] stands for this setting: Table 10, P1 and P2 are different isomers.

T1 sequence (Q9NZQ7 19-238 limits assumed): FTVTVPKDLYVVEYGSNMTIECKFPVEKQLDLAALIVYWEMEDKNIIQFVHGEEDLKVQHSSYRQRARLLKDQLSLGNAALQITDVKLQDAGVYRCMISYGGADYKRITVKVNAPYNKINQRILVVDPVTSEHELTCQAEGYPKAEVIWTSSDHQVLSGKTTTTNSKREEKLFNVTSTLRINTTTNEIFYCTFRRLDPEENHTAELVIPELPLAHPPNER
Sequence of PD-1/PD-L1 (Q9NZQ7 19-290): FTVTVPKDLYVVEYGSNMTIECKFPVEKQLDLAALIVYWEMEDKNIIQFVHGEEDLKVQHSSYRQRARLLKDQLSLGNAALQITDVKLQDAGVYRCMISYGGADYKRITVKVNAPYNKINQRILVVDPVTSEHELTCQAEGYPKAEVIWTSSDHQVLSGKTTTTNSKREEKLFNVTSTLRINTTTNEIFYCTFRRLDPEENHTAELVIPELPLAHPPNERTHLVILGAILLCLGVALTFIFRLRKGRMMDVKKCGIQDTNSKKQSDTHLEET

Consider `COc1cc(C(=O)N2CCN(Cc3csc(NC[C@@H]4C[C@@H](OC)CN4Cc4ccc(Br)cc4)n3)CC2)cc(OC)c1OC` [Compound A705], for which, in assay [1] (Table 9), the pIC50 is 6.77 and the IC50 amounted to 0.17 µM.

With `COc1cc(C(=O)N2CCN(Cc3csc(NC[C@H]4CCCN4Cc4ccc(Br)cc4)n3)CC2)cc(OC)c1OC` [Compound A706], in assay [1] (Table 9), the negative logarithm of the IC50 (pIC50) was 4.89 and the half-inhibitory concentration (IC50) came to 13 µM.

`COc1cc(C(=O)N2CCN(Cc3csc(NC[C@@H]4CCCN4Cc4ccc(Cl)cc4)n3)CC2)cc(OC)c1OC` [Compound B313]: in assay [1] (Table 9), the pIC50 is 6.69 and the IC50 stood at 0.21 µM.

For the compound `COc1cc(C(=O)N2CCN(Cc3nsc(NC[C@@H]4CCCN4Cc4ccc(Cl)cc4)n3)CC2)cc(OC)c1OC` [Compound B314], the negative-log IC50 (pIC50) in assay [1] (setting [4]) was 7.74. In addition, in assay [1] (setting [5]), the IC50 was 0.018 µM.

With `COc1cc(C(=O)N2CCN(Cc3csc(NC[C@@H]4CCCN4Cc4ccc(C(F)F)cc4)n3)CC2)cc(OC)c1OC` [Compound B315], in assay [1] (Table 9), the pIC50 was 6.45 and the IC50 is 0.35 µM.

Turning to `COc1cc(C(=O)N2CCN(Cc3nsc(NC[C@@H]4CCCN4Cc4ccc(C(F)F)cc4)n3)CC2)cc(OC)c1OC` [Compound B316], the pIC50 in assay [1] (setting [4]) was 7.60. In addition, the half-maximal inhibitory concentration (IC50) in assay [1] (setting [5]) stood at 0.025 µM.

On to `COc1cc(C(=O)N2CCN(Cc3nsc(NC[C@@H]4CCCN4Cc4ccc(C(F)(F)F)cc4)n3)CC2)cc(OC)c1OC` [Compound B317], for which the pIC50 in assay [1] (setting [4]) was 7.74. Further, the half-inhibitory concentration (IC50) in assay [1] (setting [5]) was determined as 0.018 µM.

Take `COc1cc(C(=O)N2CCN(Cc3csc(NC[C@@H]4CCCN4Cc4ccc(Br)c(F)c4)n3)CC2)cc(OC)c1OC` [Compound B318]: in assay [1] (Table 9), the negative logarithm of the IC50 (pIC50) is 7.04 and the half-inhibitory concentration (IC50) worked out at 0.092 µM.

For the compound `COc1cc(C(=O)N2CCN(Cc3nsc(NC[C@@H]4CCCN4Cc4ccc(Br)c(F)c4)n3)CC2)cc(OC)c1OC` [Compound B319], the negative logarithm of the IC50 (pIC50) in assay [1] (setting [4]) is 7.82. The IC50 in assay [1] (setting [5]) worked out at 0.015 µM.

On to `Cc1ccc(C(=O)N2CCN(Cc3csc(NC[C@@H]4CCCN4Cc4ccc(Br)cc4)n3)CC2)cc1` [Compound B408], for which, in assay [1] (Table 9), the pIC50 was less than 4.30 and the 50% inhibitory concentration (IC50) was greater than 50 µM.

In the case of `Cc1ccc(C(=O)N2CCN(Cc3nsc(NC[C@@H]4CCCN4Cc4ccc(Br)cc4)n3)CC2)cc1` [Compound B409], in assay [1] (setting [4]), the pIC50 is 6.19. In addition, the IC50 in assay [1] (setting [5]) came to 0.65 µM.

Turning to `O=C(c1ccc(Cl)cc1)N1CCN(Cc2csc(NCC3CCCN3Cc3ccc(Br)cc3)n2)CC1` (stereo not shown) [Compound B410], in assay [1] (Table 9), the pIC50 is less than 5.30 and the IC50 was greater than 5 µM.

Consider `O=C(c1ccc(Cl)cc1)N1CCN(Cc2nsc(NC[C@@H]3CCCN3Cc3ccc(Br)cc3)n2)CC1` [Compound B411], for which the pIC50 in assay [1] (setting [4]) is 5.99. Also, the concentration for half-maximal inhibition (IC50) in assay [1] (setting [5]) amounted to 1 µM.

In the case of `O=C(c1ccccc1)N1CCN(Cc2nsc(NC[C@@H]3CCCN3Cc3ccc(Br)cc3)n2)CC1` [Compound B412], the pIC50 in assay [1] (setting [4]) was 5.36. Moreover, the IC50 in assay [1] (setting [5]) worked out at 4.4 µM.

For `O=C(c1ccc(=O)[nH]c1)N1CCN(Cc2nsc(NC[C@@H]3CCCN3Cc3ccc(Br)cc3)n2)CC1` [Compound B413], the negative-log IC50 (pIC50) in assay [1] (setting [4]) is 6.36. Further, the IC50 in assay [1] (setting [5]) was found to be 0.44 µM.

In the case of `Cn1cc(C(=O)N2CCN(Cc3csc(NC[C@@H]4CCCN4Cc4ccc(Br)cc4)n3)CC2)ccc1=O` [Compound B414], in assay [1] (Table 9), the pIC50 is less than 5.30 and the IC50 is greater than 5 µM.

With `Cn1cc(C(=O)N2CCN(Cc3nsc(NC[C@@H]4CCCN4Cc4ccc(Br)cc4)n3)CC2)ccc1=O` [Compound B415], the negative logarithm of the IC50 (pIC50) in assay [1] (setting [4]) was 6.67. In addition, the 50% inhibitory concentration (IC50) in assay [1] (setting [5]) amounted to 0.22 µM.

In the case of `COc1cc(C(=O)N2CCN(Cc3cc(NC[C@@H]4CCCN4Cc4ccc(Br)cc4)sn3)CC2)cc(OC)c1OC` [Compound B708], the pIC50 in assay [1] (setting [4]) was 7.55. Also, in assay [1] (setting [5]), the half-maximal inhibitory concentration (IC50) amounted to 0.028 µM.

For the compound `COc1cc(C(=O)N2CCN(Cc3nccc(NC[C@@H]4CCCN4Cc4ccc(Br)cc4)n3)CC2)cc(OC)c1OC` [Compound B709], in assay [1] (setting [4]), the negative-log IC50 (pIC50) was 5.10. The half-inhibitory concentration (IC50) in assay [1] (setting [5]) was 8 µM.

Consider `COc1cc(C(=O)N2CCN(Cc3nsc(NC[C@@H]4CCCCN4Cc4ccc(Br)cc4)n3)CC2)cc(OC)c1OC` [Compound B710], for which, in assay [1] (setting [4]), the negative logarithm of the IC50 (pIC50) was 7.02. In assay [1] (setting [5]), the IC50 was found to be 0.096 µM.

As for `COc1cc(C(=O)N2CCN(Cc3nsc(NC[C@@H]4C[C@@H](O)CN4Cc4ccc(Br)cc4)n3)CC2)cc(OC)c1OC` [Compound B802], the negative logarithm of the IC50 (pIC50) in assay [1] (setting [4]) is 7.92. Also, the IC50 in assay [1] (setting [5]) is 0.012 µM.

`COc1cc(C(=O)N2C[C@H](C)N(Cc3nsc(NC[C@@H]4CCCN4Cc4ccc(Br)cc4)n3)C[C@@H]2C)cc(OC)c1OC` [Compound B804]: in assay [1] (setting [4]), the negative-log IC50 (pIC50) was 7.68. In addition, in assay [1] (setting [5]), the IC50 was 0.021 µM.

For `COc1cc(C(=O)N2CCN([C@H](C)c3nsc(NC[C@@H]4CCCN4Cc4ccc(Br)cc4)n3)CC2)cc(OC)c1OC` [Compound B805], in assay [1] (setting [4]), the pIC50 is 7.85. In addition, in assay [1] (setting [5]), the concentration for half-maximal inhibition (IC50) is 0.014 µM.

With `COc1cc(C(=O)N2CCN([C@@H](C)c3nsc(NC[C@@H]4CCCN4Cc4ccc(Br)cc4)n3)CC2)cc(OC)c1OC` [Compound B806], the negative-log IC50 (pIC50) in assay [1] (setting [4]) was 7.92. Further, the IC50 in assay [1] (setting [5]) came to 0.012 µM.

As for `COc1cc(C(=O)N2CCN(Cc3nsc(NC[C@@H]4C[C@@H](O)CN4[C@@H](C)c4ccc(Br)cc4)n3)CC2)cc(OC)c1OC` [Compound B910], the pIC50 in assay [1] (setting [4]) is 7.36. The IC50 in assay [1] (setting [5]) came out at 0.044 µM.

Turning to `COc1cc(C(=O)N2C[C@H](C)N(Cc3nsc(NC[C@@H]4C[C@@H](O)CN4Cc4ccc(Br)cc4)n3)C[C@@H]2C)cc(OC)c1OC` [Compound B911], in assay [1] (setting [4]), the pIC50 is 7.48. The IC50 in assay [1] (setting [5]) amounted to 0.033 µM.

With `COc1cc(OCc2cccc(-c3ccccc3)c2C)cc(OC)c1CN1CCCCC1C(=O)O` (stereo not shown) [Compound S7911], the pIC50 in assay [2] was 8.22.

As for `CS(=O)(=O)c1cncc(COc2cc(OCc3cccc(-c4cccc(-c5ccc6c(c5)C[C@@H](N)C6)c4Cl)c3Cl)c(Br)cc2CN2CCCC[C@H]2C(=O)O)c1` [GS-4224, Example A], the KD/IC50 in assay [3] is on record as 0.09 nM.

As for `Cc1c(Nc2nc(C(F)F)nc3cc(CN4CC[C@](C)(O)C4)cnc23)cccc1-c1cccc(-c2nc3cc(CN4CCC(C(=O)O)CC4)cc(C#N)c3o2)c1C` [INB086550], the KD/IC50 in assay [3] is on record as less than 10 nM.

The values above are taken from patent US20230219942A1, “COMPOUNDS COMPRISING A THREE RING CORE AS PD-1/PD-L1 BLOCKERS” (RELIVE THERAPEUTICS INC., priority 2020, published 2023).
